The values below come from patent publication US20020055099A1, “SEQUENTIAL CDNA LIBRARY AND USES THEREOF” (priority 1999, published 2002).

Assay [1] has as its system HO-1 human melanoma cells. The following applies: HO-1 cells, cited from earlier work.
In assay [2] the test system is HO-1 human melanoma cells. The assay is described as follows: SCLA reverse Northern hybridization of arrayed subtracted cDNA library with mRNAs from treated HO-1 cells. The class given is cell-based. The following applies: IFN-β 2000 units/ml, MEZ 10 ng/ml, staurosporine 500 ng/ml, temporally pooled mRNAs.
Description: Staurosporine-treated HO-1 cells were harvested at 4, 8 and 24 hrs after treatment.
For reverse Northern analysis, RNA samples from each time point were pooled and 20 μg of pooled total RNA was reverse transcribed in two reactions into a ^32P-labeled first strand cDNA probe. After heating at 70° C. for 10 min and quenching on ice for two min, a mixture consisting of 10 pmole of T13V and 10 μg of the total RNA mixture in 50 mM Tris-HCl (pH 8.3), 75 mM KCl, 3 mM MgCl2, 10 mM DTT, 0.5 mM DATP, 0.5 mM dGTP, 0.5 mM dTTP, 0.02 mM dCTP, 5 U RNase inhibitor (Gibco BRL), 100 μCi dCTP (3000 Ci/mmole from Amersham) and 200 U Superscript RT II (Gibco BRL) was added (final 25 μl). The reaction mixture was incubated at 42° C. for one hr and at 37° C. for 30 min after addition of 2 μl of RNase H (10U, Gibco BRL). The membrane was hybridized at 42° C. overnight in a 50% formamide hybridization solution. The hybridized membrane was washed 2× at room temperature for 15 min with 2× SSC containing 0.1% SDS and then washed for at least one hr at 55° C. with 0.1× SSC containing 0.1% SDS. The membranes were exposed for different times to autoradiography.
After subtraction hybridization, a temporally spaced amplified subtracted (TSS) cDNA library (consisting of 4,979 plaques) was picked and plated individually (arrayed) in thirteen 384-well microtiter plates. […] This approach permitted the identification of cDNAs displaying altered expression as a function of the specific treatment protocol.
[3] abbreviates: IFN-β 2000 units/ml, MEZ 10 ng/ml where printed.

Take `C=C(C)[C@@]12O[C@@]3(c4ccccc4)O[C@@H]1[C@@H]1[C@@H]4O[C@]4(CO)[C@@H](O)[C@]4(O)C(=O)C(C)=C[C@H]4[C@@]1(O3)[C@H](C)[C@H]2OC(=O)/C=C/C=C/c1ccccc1` [MEZ, mezerein]: in assay [1] (setting [3]), the “effect on HO-1 cell growth” value is on record as “growth suppression” and the “melanin synthesis / differentiation marker” value was “elevated melanin levels”. In addition, the morphological differentiation result in assay [1] (MEZ 10 ng/ml) was “exhibit morphological differentiation”. In addition, in assay [2], the “clones induced only by the agent (uniquely positive after a single treatment protocol)” value is 12 clones.

Regarding `CN[C@@H]1C[C@H]2O[C@@](C)([C@@H]1OC)n1c3ccccc3c3c4c(c5c6ccccc6n2c5c31)C(=O)NC4` [staurosporine], the apoptosis result in assay [1] is reported as “induces apoptosis”. Also, in assay [2], the “clones induced only by the agent (uniquely positive after a single treatment protocol)” value was found to be 25 clones and the “positive clones (DMAC) identified after treatment, of 427 positive clones” value turned out to be 107 clones.
